US20160039852A1, “THERAPEUTIC USES OF BISPHOSPHONATES” (THE UNIVERSITY OF SHEFFIELD, priority 2013, published 2016)
Entries after “also recorded” stand apart in the source; their conditions may differ.

Tests used:
[1] = test system: human mesenchymal stem cells (hMSC); test: hMSC growth kinetics, cumulative population doublings with time in culture; type: cell-based
[2] = test system: murine and human cancer lines (PC3, 178-2 BMA, MDA-MB231, 5TGM1, 5T33); test: γH2AX foci in cancer lines following irradiation; type: cell-based; conditions: irradiation (1Gy), Zol, 0, 4, 12, 24 and 48 h post irradiation
Protocol: (C-H) Number of γH2AX foci enumerated in (C) hMSC, (D) PC3, (E) 178-2 BMA, (F) MDA-MB231,
(G) 5TGM1 and (H) 5T33 lines following irradiation (1Gy) in the presence or absence of Zol ([…]) and assessed at 0, 4, 12, 24 and 48 h post irradiation (n=3).
Human prostate cancer cell line PC3 cells were maintained in DMEM with Glutamax (Gibco) containing 10% FBS (Sigma), 1% penicillin (100units/ml)/streptomycin (100 μg/ml) (Sigma). Mouse prostate cancer cell line 178-2 BMA was cultured as described above with the addition of 0.1 mM 4-(2-hydroxyethyl)-1-piperazineethanesulfonic acid (Life Technologies, Gaithersburg, USA) and 0.01 mM sodium pyruvate (PAA Laboratories). Human breast cancer cell line MDA-MB-231 was cultured in RPMI 1640 with Glutamax supplemented with 10% FBS (Sigma), 0.01 mM sodium pyruvate (PAA laboratories) and penicillin (1 units/ml) and streptomycin (1 μg/ml) (Sigma). […]
DNA damage was induced by exposing hMSC to ^137Cs Gamma source. […] Five to seven fields consisting of 25 cells in total were randomly selected from a tile scan (20×) and individual cells viewed at 63× were then scored for γH2AX DNA damage foci using ImageJ 1.45 software (http://rsbweb.nih.gov/ij/).

unprenylated RAP1A = test: Unprenylation (unprenylated RAP1A) in murine tissues following treatment; type: in vivo, C57BL6/J mice; conditions: Zol 125 μg/kg, i.p., 3 days, n=6 mice/group
Protocol: For in vivo murine experiments C57BL6/J mice aged 8-10 weeks were used. All animals were housed in a conventional, non- specific pathogen free (SPF), mouse facility at the Medical School, University of Sheffield. Mice were fed on a commercially prepared pelleted diet and given water ad libitum. A minimum of 6 mice were used in each experimental group. Depending on the experimental groups, mice were injected either with Zoledronate(single dose, 125 μg/kg) or PBS ip, and sacrificed for tissue collection 3 days after the injection. Snap-frozen tissues were lysed for protein extraction using a tissue homogenizer and mammalian cell lysis buffer containing phosphatase and protease inhibitors. Protein lysates were run on 12% Tris-glycine gels and assessed for unprenylated RAP1A detected by sc1482 antibody RAP1A (Santacruz, USA) at 1:1000 dilution and GAPDH at 1:10000 dilution as described earlier.

[3] = test system: intestinal crypt and villi; test: Murine intestine regeneration following irradiation; type: in vivo, C57BL6/J mice; conditions: Zol 125 μg/kg i.p. 3 days prior to 9Gy
Protocol: Mice (C57BL6/J) were injected with either Zoledronate (single dose, i.p.,125 μg/kg) or PBS. On day 3 post-injection, Mice were exosed to whole body irradiation (9Gy; n=3/group) using 137Cs Gamma source. Within 24 hours from irradiation systemic bone marrow transplantation was performed to prevent myelotoxicity. mice were sacrificed 4 days post-irradiation for histological analysis of
Intestinal tissue. At the time of harvest this was divided with a scalpel into duodenum, ileum-jejunum, colon and rectum, and each region was further cut into 0.5 cm pieces that were placed in histological cassettes and stored in 70% ethanol prior to embedding. Tissues were paraffin embedded and sectioned at 3-5 μm thickness and mounted onto […] coated glass microscope slides. The slides were de-waxed in xylene (BDH, Leister, UK) and rehydrated by passing through a series of ethanol dilutions. The nuclei were stained by placing in Gill's haematoxylin (Sigma, Poole, UK), washed with water followed by staining of cytoplasm in alcoholic eosin (Sigma, Poole, UK) and washed. Slides were dehydrated through a series of graded alcohols and cleared in xylene for 3 minutes prior to mounting with DPX and coverslip to examine under microscope. Stained tissue sections were scanned on the Aperio Slide Scanner (Leica Biosystems, Newcastle, UK). To obtain villi length and crypt depth, images were analysed on the Aperio ImageScope Software (v11.2.0.780) and using the ruler tool, measurements were taken on a surface of 0.525 mm^2 at 3 different levels.

[4] = assessed 4 days later, n=3/group

O=P(O)(O)C(O)(Cn1ccnc1)P(=O)(O)O [Zoledronate] was tested, and the “population doublings after which cultures were still proliferating” value ([1]; hMSC grown in presence of Zol (1 μM), PBS cultures senesced after 21-27 PDs, n=3) was 29-36 PDs, the “ability of hMSC to proliferate and differentiate following irradiation” value ([1]; irradiated at 3 Gy, Zol for 3 days, washed off 12 h later) was “rescues hMSCs ability to proliferate and differentiate” and the “hMSC life span / time of proliferation in culture” value ([1]; versus PBS control, listed as Zol) was “extension of life span; also recorded: proliferated for a longer time than control cells”. The “DNA repair capacity (γH2AX foci)” value [2] was “does not enhance the DNA repair capacity”, the “levels of Rap1A unprenylation in murine tissues” value (unprenylated RAP1A) was “increased levels of Rap1A unprenylation” and the “protection of intestinal crypt and villi following irradiation” value [3] was “protects intestinal crypt and villi”. For the same molecule, the intestinal crypt depth [3, 4] was “improved” and the villi length [3, 4] was “improved”.
